In test [1] the target is Tyrosine-protein kinase BTK (Homo sapiens) (UniProt Q06187). The test is described as follows: Inhibition of human recombinant BTK at 40 nM in presence of ATP by radiometric assay relative to control.
Test [2] has as its target SAFB-like transcription modulator (Homo sapiens) (UniProt Q9NWH9). The experiment in a line: Inhibition of human recombinant MET at 40 nM related to control ULK1.
Test [3] has as its target T1, Receptor-interacting serine/threonine-protein kinase 1 (Homo sapiens) (UniProt Q13546).
T1 sequence (whole entry): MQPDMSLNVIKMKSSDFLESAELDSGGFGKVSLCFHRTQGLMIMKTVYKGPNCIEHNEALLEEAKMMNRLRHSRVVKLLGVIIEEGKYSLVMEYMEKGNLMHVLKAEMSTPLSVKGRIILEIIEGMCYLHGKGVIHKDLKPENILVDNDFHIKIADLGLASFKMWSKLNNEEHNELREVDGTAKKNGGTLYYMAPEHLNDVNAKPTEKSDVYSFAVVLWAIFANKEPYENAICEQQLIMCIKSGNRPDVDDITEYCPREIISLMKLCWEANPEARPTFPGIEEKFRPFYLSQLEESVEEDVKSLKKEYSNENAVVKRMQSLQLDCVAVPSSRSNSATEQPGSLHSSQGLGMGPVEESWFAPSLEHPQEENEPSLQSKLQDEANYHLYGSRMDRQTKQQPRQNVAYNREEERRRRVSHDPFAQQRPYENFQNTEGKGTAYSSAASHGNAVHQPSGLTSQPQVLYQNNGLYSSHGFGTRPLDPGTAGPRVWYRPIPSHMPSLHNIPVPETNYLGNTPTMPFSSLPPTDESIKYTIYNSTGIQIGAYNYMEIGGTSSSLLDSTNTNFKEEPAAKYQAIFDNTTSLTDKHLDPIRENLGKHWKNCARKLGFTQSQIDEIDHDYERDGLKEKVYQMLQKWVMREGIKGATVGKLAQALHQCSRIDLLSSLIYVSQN
The test is described as follows: Inhibition of human recombinant RIPK1 at 40 nM in presence of ATP by radiometric assay relative to control.

Test [4] has as its target Ephrin type-A receptor 2 (Homo sapiens) (UniProt P29317). The test is described as follows: Inhibition of human recombinant EphA2 at 40 nM related to control ULK1.
Test [5] has as its target Serine/threonine-protein kinase pim-2 (Homo sapiens) (UniProt Q9P1W9). The experiment in a line: Inhibition of human recombinant PIM2 at 500 nM related to control ULK1.
The target in test [6] is MAP kinase-activated protein kinase 3 (Homo sapiens) (UniProt Q16644). The experiment in a line: Inhibition of human recombinant MAPKAPK3 at 500 nM in presence of ATP by radiometric assay relative to control.
Test [7] has as its target Receptor-interacting serine/threonine-protein kinase 2 (Homo sapiens) (UniProt O43353). The test is described as follows: Inhibition of human recombinant RIPK2 at 500 nM related to control ULK1.
Test [8] concerns the target Non-receptor tyrosine-protein kinase TYK2 (Homo sapiens) (UniProt P29597). The experiment in a line: Inhibition of human recombinant TYK2 at 15 nM related to control ULK1.
For test [9], the target named is Rhodopsin kinase GRK7 (Homo sapiens) (UniProt Q8WTQ7). The test is described as follows: Inhibition of human recombinant GPRK7 at 15 nM related to control ULK1.
Test [10] has as its target Aurora kinase B (Homo sapiens) (UniProt Q96GD4). The test is described as follows: Inhibition of human recombinant AurB at 15 nM related to control ULK1.
The target in test [11] is T2, Eukaryotic translation initiation factor 2-alpha kinase 3 (Homo sapiens) (UniProt Q9NZJ5).
T2 sequence (whole entry): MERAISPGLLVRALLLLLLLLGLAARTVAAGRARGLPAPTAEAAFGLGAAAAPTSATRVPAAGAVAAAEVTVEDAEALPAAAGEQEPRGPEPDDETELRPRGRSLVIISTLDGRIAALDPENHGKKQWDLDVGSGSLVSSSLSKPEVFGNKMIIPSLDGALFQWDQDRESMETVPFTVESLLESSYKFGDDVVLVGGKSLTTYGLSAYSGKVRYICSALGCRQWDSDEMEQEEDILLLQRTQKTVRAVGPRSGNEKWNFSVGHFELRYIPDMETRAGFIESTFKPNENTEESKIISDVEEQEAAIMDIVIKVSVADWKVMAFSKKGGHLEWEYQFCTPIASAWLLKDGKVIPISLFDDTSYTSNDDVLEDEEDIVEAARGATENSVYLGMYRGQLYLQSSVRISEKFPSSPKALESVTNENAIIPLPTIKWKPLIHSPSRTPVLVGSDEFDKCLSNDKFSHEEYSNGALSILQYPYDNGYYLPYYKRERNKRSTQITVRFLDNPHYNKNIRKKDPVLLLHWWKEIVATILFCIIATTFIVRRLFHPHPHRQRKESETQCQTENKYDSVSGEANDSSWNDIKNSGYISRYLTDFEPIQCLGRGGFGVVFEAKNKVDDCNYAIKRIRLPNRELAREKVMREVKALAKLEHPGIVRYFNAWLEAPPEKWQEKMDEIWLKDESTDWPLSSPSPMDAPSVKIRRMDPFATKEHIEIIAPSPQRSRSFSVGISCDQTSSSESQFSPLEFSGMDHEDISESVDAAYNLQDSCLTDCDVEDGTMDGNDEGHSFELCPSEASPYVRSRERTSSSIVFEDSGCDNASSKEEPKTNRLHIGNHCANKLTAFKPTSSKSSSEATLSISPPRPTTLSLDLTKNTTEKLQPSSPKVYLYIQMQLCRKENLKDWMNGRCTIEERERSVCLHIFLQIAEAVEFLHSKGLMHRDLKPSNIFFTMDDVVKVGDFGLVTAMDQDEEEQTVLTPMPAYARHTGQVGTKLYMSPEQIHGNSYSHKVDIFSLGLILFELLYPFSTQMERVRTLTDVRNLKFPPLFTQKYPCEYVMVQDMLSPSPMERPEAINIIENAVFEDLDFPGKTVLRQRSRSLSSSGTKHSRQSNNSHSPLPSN
The test is described as follows: Inhibition of human recombinant PEK at 15 nM in presence of ATP by radiometric assay relative to control.

Test [12] has as its target MAP kinase-interacting serine/threonine-protein kinase 2 (Homo sapiens, UniProt Q9HBH9). The test is described as follows: Inhibition of human recombinant MNK2 at 15 nM related to control ULK1.
Test [13] addresses 3-phosphoinositide-dependent protein kinase 1 (Homo sapiens) (UniProt O15530). The test is described as follows: Inhibition of human recombinant PDK1 at 15 nM in presence of ATP by radiometric assay relative to control.

Serine/threonine-protein kinase pim-2 (Homo sapiens), sequence (Q9P1W9 whole entry, looked up): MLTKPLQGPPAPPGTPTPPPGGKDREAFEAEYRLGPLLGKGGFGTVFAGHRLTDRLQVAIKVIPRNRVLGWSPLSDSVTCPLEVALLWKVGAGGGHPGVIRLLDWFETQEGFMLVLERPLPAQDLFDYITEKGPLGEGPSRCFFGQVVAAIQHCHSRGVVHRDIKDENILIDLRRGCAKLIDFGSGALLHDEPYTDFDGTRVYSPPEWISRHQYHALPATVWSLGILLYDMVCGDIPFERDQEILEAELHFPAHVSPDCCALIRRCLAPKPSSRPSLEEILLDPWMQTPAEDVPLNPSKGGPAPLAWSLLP
Tyrosine-protein kinase BTK (Homo sapiens), sequence (Q06187 whole entry): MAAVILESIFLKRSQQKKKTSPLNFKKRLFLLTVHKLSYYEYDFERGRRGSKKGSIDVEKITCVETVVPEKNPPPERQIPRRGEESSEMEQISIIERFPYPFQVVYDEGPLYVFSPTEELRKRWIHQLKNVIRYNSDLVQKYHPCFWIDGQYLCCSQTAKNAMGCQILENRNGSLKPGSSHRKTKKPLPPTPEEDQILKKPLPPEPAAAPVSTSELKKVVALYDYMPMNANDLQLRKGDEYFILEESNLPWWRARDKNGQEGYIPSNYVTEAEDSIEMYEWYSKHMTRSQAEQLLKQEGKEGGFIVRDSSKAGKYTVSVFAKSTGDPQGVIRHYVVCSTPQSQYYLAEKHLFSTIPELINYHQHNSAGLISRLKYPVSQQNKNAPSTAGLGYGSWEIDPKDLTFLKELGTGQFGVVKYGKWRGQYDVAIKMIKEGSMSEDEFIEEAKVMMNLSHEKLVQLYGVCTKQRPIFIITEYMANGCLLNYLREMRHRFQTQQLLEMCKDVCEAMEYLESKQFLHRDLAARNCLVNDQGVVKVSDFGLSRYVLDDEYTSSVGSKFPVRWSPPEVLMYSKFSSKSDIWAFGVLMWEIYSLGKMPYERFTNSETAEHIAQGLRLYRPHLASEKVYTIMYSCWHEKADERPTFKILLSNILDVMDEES
3-phosphoinositide-dependent protein kinase 1 (Homo sapiens), sequence (O15530 whole entry, looked up): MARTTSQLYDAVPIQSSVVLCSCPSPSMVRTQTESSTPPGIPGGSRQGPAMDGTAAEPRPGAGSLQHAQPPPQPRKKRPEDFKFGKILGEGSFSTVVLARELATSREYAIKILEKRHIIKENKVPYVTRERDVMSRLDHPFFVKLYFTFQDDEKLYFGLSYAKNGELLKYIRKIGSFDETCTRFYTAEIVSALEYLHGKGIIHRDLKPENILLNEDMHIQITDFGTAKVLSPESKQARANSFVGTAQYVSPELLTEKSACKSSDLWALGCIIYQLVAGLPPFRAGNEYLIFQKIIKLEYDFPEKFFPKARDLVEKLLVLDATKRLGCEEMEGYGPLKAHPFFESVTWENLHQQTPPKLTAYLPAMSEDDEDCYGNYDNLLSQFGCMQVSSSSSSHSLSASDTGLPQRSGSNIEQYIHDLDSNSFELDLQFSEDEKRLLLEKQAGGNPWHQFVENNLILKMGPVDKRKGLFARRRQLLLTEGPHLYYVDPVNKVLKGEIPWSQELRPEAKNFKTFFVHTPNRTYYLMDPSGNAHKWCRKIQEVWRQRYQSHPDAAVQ
MAP kinase-activated protein kinase 3 (Homo sapiens), sequence (Q16644 whole entry, looked up): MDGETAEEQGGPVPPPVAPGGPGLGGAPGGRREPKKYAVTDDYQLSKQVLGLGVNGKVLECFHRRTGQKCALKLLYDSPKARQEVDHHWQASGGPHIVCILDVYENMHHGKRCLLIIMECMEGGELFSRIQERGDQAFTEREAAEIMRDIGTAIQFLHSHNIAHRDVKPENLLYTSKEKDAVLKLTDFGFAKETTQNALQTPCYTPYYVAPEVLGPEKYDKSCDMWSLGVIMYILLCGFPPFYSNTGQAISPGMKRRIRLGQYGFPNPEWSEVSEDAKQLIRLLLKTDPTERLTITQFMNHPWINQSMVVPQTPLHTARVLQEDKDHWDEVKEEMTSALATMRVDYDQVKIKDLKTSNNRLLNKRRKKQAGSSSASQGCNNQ
Receptor-interacting serine/threonine-protein kinase 2 (Homo sapiens), sequence (O43353 whole entry): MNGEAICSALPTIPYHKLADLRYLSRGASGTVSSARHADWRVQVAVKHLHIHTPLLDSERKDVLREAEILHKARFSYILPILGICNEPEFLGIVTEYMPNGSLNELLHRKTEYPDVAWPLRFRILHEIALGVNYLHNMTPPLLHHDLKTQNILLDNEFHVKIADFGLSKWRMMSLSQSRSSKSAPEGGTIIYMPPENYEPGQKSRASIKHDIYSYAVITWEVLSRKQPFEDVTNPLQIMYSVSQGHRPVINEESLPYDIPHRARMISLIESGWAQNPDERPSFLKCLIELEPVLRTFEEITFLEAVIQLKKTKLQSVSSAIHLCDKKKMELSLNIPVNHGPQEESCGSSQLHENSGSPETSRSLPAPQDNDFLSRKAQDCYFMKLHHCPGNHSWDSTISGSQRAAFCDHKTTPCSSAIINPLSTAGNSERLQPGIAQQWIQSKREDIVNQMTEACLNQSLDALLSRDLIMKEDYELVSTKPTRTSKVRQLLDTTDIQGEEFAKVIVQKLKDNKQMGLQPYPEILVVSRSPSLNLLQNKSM
Ephrin type-A receptor 2 (Homo sapiens), sequence (P29317 whole entry): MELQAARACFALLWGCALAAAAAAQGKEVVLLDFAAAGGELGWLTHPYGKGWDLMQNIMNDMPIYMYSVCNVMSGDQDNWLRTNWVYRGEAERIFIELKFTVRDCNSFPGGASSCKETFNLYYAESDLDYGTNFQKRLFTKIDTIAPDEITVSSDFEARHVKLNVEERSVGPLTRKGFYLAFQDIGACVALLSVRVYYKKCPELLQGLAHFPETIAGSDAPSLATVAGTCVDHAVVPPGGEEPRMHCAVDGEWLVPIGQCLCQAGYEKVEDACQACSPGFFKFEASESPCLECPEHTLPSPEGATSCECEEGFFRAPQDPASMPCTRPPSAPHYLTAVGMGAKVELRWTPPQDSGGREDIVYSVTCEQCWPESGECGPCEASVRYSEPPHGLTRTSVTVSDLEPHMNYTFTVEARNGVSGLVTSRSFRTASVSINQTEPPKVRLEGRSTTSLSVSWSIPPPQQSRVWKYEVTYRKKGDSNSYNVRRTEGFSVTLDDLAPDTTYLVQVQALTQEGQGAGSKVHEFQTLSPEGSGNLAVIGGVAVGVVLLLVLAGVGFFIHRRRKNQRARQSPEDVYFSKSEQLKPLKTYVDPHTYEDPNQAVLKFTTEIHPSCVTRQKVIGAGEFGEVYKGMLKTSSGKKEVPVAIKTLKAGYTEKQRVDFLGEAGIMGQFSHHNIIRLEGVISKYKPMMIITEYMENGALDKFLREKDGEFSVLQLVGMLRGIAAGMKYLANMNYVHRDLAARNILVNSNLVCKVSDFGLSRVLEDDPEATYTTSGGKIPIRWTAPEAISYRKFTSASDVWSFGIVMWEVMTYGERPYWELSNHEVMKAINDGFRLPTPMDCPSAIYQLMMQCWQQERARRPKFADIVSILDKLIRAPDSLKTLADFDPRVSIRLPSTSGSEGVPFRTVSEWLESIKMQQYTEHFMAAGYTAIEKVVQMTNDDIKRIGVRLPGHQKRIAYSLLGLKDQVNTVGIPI
Rhodopsin kinase GRK7 (Homo sapiens), sequence (Q8WTQ7 whole entry, looked up): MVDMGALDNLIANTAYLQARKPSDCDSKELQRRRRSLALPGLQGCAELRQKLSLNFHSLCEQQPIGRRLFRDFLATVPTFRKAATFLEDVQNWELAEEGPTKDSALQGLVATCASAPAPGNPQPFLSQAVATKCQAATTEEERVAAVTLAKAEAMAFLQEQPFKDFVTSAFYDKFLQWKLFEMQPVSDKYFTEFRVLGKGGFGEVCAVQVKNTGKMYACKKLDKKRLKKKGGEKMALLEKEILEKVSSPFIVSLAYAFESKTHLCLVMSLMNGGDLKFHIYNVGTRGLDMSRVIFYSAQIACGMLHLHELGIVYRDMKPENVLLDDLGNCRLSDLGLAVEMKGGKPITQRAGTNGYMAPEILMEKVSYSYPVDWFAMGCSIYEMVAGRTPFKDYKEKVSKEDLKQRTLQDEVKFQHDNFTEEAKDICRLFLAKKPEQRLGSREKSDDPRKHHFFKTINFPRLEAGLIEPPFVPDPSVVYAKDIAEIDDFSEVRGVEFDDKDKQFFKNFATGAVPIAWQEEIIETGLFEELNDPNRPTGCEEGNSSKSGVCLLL
Aurora kinase B (Homo sapiens), sequence (Q96GD4 whole entry): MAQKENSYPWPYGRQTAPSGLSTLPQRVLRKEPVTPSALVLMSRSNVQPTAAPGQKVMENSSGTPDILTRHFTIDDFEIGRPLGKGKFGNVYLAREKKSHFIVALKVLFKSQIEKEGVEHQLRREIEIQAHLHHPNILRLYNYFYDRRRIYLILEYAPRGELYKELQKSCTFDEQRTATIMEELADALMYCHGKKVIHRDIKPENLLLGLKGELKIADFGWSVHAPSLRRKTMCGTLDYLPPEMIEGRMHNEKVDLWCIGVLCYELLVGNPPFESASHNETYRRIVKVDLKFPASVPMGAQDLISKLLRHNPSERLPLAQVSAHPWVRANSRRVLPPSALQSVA
MAP kinase-interacting serine/threonine-protein kinase 2, sequence (Q9HBH9 whole entry, looked up): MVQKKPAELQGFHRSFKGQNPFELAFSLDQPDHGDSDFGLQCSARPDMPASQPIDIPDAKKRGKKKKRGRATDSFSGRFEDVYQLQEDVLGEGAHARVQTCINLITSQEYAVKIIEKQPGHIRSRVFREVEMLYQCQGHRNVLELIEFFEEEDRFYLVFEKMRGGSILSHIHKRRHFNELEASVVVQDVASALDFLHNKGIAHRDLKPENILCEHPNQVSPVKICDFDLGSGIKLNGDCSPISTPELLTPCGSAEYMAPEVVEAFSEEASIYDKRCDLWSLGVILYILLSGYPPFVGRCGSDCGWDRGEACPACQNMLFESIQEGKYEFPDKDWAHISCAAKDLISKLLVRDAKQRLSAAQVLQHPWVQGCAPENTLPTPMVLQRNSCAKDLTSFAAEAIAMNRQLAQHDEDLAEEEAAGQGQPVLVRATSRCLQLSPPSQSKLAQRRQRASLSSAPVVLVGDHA

On to `O=C(N[C@@H](C1CC1)C(F)(F)F)c1cc(-c2cnn3cc(-c4ccc(F)cc4)cnc23)cs1`, for which the inhibition was 0% in test [1] and 2% in [3]. Besides, the fold change (FC) was 0.22 in [2] and 0.03 in test [4].
`CNC(=O)c1ccccc1Oc1nc(Nc2cc(OC)c(OC)c(OC)c2)ncc1Br`: the fold change (FC) in test [5] was 0.03; in [7], 0. In addition, the inhibition in test [6] was determined as 0%.
For the compound `CC(C)[C@H](NC(=O)c1cc(-c2cnn3cc(-c4ccc(OCCN5CCCCC5)cc4)cnc23)cs1)C(F)(F)F`, the fold change (FC) amounted to 0.02 in [8], 0 in test [9], 0.2 in [10] and 0.3 in [12]. Moreover, the inhibition in [11] came to 0%; in test [13] it was 6%.

Values taken from ChEMBL document CHEMBL5653631, “A Potent and Selective ULK1 Inhibitor Suppresses Autophagy and Sensitizes Cancer Cells to Nutrient Stress” (iScience, 2018).
